Data published in patent US20170008921A1, “C-3 NOVEL TRITERPENONE WITH C-28 REVERSE AMIDE DERIVATIVES AS HIV INHIBITORS” (HETERO RESEARCH FOUNDATION, priority 2015, published 2017).
Structures can show the parent of a compound that is named as a salt. Where two headings read alike, the source gives them in different places.

Experiment: Cyto-toxicity (MTT assay)
Assay type: cell-based
Protocol: On day 1 calculate the number of cells required for the assay and seed 3×10^4 cells in 200 μl per well. Weigh the compound and dissolve it in DMSO to get 10 mM stock which is further diluted to 3 mM and 1 mM. […] Add DMSO to controls in a way to obtain final concentration of solvent that is not greater than 1%. Incubate for 4 days in 5% CO2 incubator at 37° C. On day 4, 100 μl of medium was removed from each well without disturbing the cells. Add 10 μl of MTT reagent and incubate for 4 hours at 5% CO2 incubator at 37° C. for formation of crystals. Add 200 μl of 0.1N acidic isopropanol to dissolve the crystals and read the plate at 590 nm. The values are mentioned in below Table-3 and Table-3A.

[1] = 0.01 μM, MTT, 4 days (Table 3), read-out: Cytotoxicity % viability
[2] = 0.1 μM, MTT, 4 days (Table 3), read-out: Cytotoxicity % viability
[3] = 1 μM, MTT, 4 days (Table 3), read-out: Cytotoxicity % viability

Structure (SMILES) | viability at 4 days, 0.01 µM [%] | viability at 4 days, 0.1 µM [%] | viability at 4 days, 1 µM [%] | other results
CC(C)C1=C2[C@H]3CC[C@@H]4[C@@]5(C)CC[C@H](OC(=O)[C@H]6C[C@@H](C(=O)O)C6(C)C)C(C)(C)[C@@H]5CC[C@@]4(C)[C@]3(C)CC[C@@]2(NC(=O)C(C)(C)NC(=O)[C@@H](N)C(C)C)CC1=O [Example 36, (1R,3S)-3-((((3aR,5aR,5bR,7aR,9S,11aR,11bR,13aS)-3a-(2-((S)-2-amino-3-methylbutanamido)-2-methylpropanamido)-1-isopropyl-5a,5b,8,8,11a-pentamethyl-2-oxo-3,3a,4,5,5a,5b,6,7,7a,8,9,10,11,11a,11b,12,13,13a-octadecahydro-2H-cyclopenta[a]chrysen-9-yl)oxy)carbonyl)-2,2-dimethylcyclobutane-1-carboxylic acid hydrochloride] | – | – | – | viability at 4 days, 0.01 µM [1]: 56%; viability at 4 days, 0.1 µM [2]: 15%; viability at 4 days, 1 µM [3]: 8%
CC(C)C1=C2[C@H]3CC[C@@H]4[C@@]5(C)CC[C@H](OC(=O)[C@H]6C[C@@H](C(=O)O)C6(C)C)C(C)(C)[C@@H]5CC[C@@]4(C)[C@]3(C)CC[C@@]2(NC(=O)C(C)(C)NC(=O)C(C)(C)N)CC1=O [Example 11, (1R,3S)-3-((((3aR,5aR,5bR,7aR,9S,11aR,11bR,13aS)-3a-(2-(2-amino-2-methylpropanamido)-2-methylpropanamido)-1-isopropyl-5a,5b,8,8,11a-pentamethyl-2-oxo-3,3a,4,5,5a,5b,6,7,7a,8,9,10,11,11a,11b,12,13,13a-octadecahydro-2H-cyclopenta[a]chrysen-9-yl)oxy)carbonyl)-2,2-dimethylcyclobutane-1-carboxylic acid hydrochloride] | 41 | 3 | 1 | –
CC(C)C1=C2[C@H]3CC[C@@H]4[C@@]5(C)CC[C@H](OC(=O)[C@H]6C[C@@H](C(=O)O)C6(C)C)C(C)(C)[C@@H]5CC[C@@]4(C)[C@]3(C)CC[C@@]2(NC(=O)C(C)(C)NS(C)(=O)=O)CC1=O [Example 63, sodium (1R,3S)-3-((((3aR,5aR,5bR,7aR,9S,11aR,11bR,13aS)-1-isopropyl-5a,5b,8,8,11a-pentamethyl-3a-(2-methyl-2-(methylsulfonamido)propanamido)-2-oxo-3,3a,4,5,5a,5b,6,7,7a,8,9,10,11,11a,11b,12,13,13a-octadecahydro-2H-cyclopenta[a]chrysen-9-yl)oxy)carbonyl)-2,2-dimethylcyclobutane-1-carboxylate] | 51 | 16 | 0 | –
CC(C)C1=C2[C@H]3CC[C@@H]4[C@@]5(C)CC[C@H](OC(=O)[C@H]6C[C@@H](C(=O)O)C6(C)C)C(C)(C)[C@@H]5CC[C@@]4(C)[C@]3(C)CC[C@@]2(NC(=O)C(C)(C)NC(=O)C2CCNCC2)CC1=O [Example 35, (1R,3S)-3-((((3aR,5aR,5bR,7aR,9S,11aR,11bR,13aS)-1-isopropyl-5a,5b,8,8,11a-pentamethyl-3a-(2-methyl-2-(piperidine-4-carboxamido)propanamido)-2-oxo-3,3a,4,5,5a,5b,6,7,7a,8,9,10,11,11a,11b,12,13,13a-octadecahydro-2H-cyclopenta[a]chrysen-9-yl)oxy)carbonyl)-2,2-dimethylcyclobutane-1-carboxylic acid hydrochloride] | – | – | – | viability at 4 days, 0.01 µM [1]: 84%; viability at 4 days, 0.1 µM [2]: 92%; viability at 4 days, 1 µM [3]: 77%
CC(C)C1=C2[C@H]3CC[C@@H]4[C@@]5(C)CC[C@H](OC(=O)[C@H]6C[C@@H](C(=O)O)C6(C)C)C(C)(C)[C@@H]5CC[C@@]4(C)[C@]3(C)CC[C@@]2(NC(=O)C2(NC(=O)c3ccc(F)cc3)CC2)CC1=O [Example 39, (1R,3S)-3-((((3aR,5aR,5bR,7aR,9S,11aR,11bR,13aS)-3a-(1-(4-fluorobenzamido)cyclopropane-1-carboxamido)-1-isopropyl-5a,5b,8,8,11a-pentamethyl-2-oxo-3,3a,4,5,5a,5b,6,7,7a,8,9,10,11,11a,11b,12,13,13a-octadecahydro-2H-cyclopenta[a]chrysen-9-yl)oxy)carbonyl)-2,2-dimethylcyclobutane-1-carboxylic acid] | 29 | 2 | 0 | –
CC(C)C1=C2[C@H]3CC[C@@H]4[C@@]5(C)CC[C@H](OC(=O)[C@H]6C[C@@H](C(=O)O)C6(C)C)C(C)(C)[C@@H]5CC[C@@]4(C)[C@]3(C)CC[C@@]2(NC(=O)C(C)(C)NC(=O)[C@H]2CCCNC2)CC1=O [Example 52, (1R,3S)-3-((((3aR,5aR,5bR,7aR,9S,11aR,11bR,13aS)-1-isopropyl-5a,5b,8,8,11a-pentamethyl-3a-(2-methyl-2-((S)-piperidine-3-carboxamido)propan amido)-2-oxo-3,3a,4,5,5a,5b,6,7,7a,8,9,10,11,11a,11b,12,13,13a-octadecahydro-2H-cyclopenta[a]chrysen-9-yl)oxy)carbonyl)-2,2-dimethylcyclobutane-1-carboxylic acid hydrochloride] | – | – | – | viability at 4 days, 0.001 µM (0.001 μM, MTT, 4 days (Table 3A), read-out: Cytotoxicity % viability): 83%; viability at 4 days, 0.003 µM (0.003 μM, MTT, 4 days (Table 3A), read-out: Cytotoxicity % viability): 89%; viability at 4 days, 0.01 µM (0.01 μM, MTT, 4 days (Table 3A), read-out: Cytotoxicity % viability): 59%
CC(C)C1=C2[C@H]3CC[C@@H]4[C@@]5(C)CC[C@H](OC(=O)[C@H]6C[C@@H](C(=O)O)C6(C)C)C(C)(C)[C@@H]5CC[C@@]4(C)[C@]3(C)CC[C@@]2(NC(=O)C(C)(C)NCC2(c3ccc(Cl)cc3)CC2)CC1=O [Example 69, (1R,3S)-3-((((3aR,5aR,5bR,7aR,9S,11aR,11bR,13aS)-3a-(2-(((1-(4-chlorophenyl)cyclopropyl)methyl)amino)-2-methylpropanamido)-1-isopropyl-5a,5b,8,8, 11a-pentamethyl-2-oxo-3,3a,4,5,5a,5b,6,7,7a,8,9,10,11,11a,11b,12,13,13a-octadecahydro-2H-cyclopenta[a]chrysen-9-yl)oxy)carbonyl)-2,2-dimethylcyclobutane-1-carboxylic acid] | 42 | 8 | 8 | –
CC(C)C1=C2[C@H]3CC[C@@H]4[C@@]5(C)CC[C@H](OC(=O)[C@H]6C[C@@H](C(=O)O)C6(C)C)C(C)(C)[C@@H]5CC[C@@]4(C)[C@]3(C)CC[C@@]2(NC(=O)C(C)(C)NC(=O)C2(c3ccccc3)CCCC2)CC1=O [Example 27, (1R,3S)-3-((((3aR,5aR,5bR,7aR,9S,11aR,11bR,13aS)-1-isopropyl-5a,5b,8,8,11a-pentamethyl-3a-(2-methyl-2-(1-phenylcyclopentane-1-carboxamido)propanamido)-2-oxo-3,3a,4,5,5a,5b,6,7,7a,8,9,10,11,11a,11b,12,13,13a-octadecahydro-2H-cyclopenta[a]chrysen-9-yl)oxy)carbonyl)-2,2-dimethylcyclobutane-1-carboxylic acid] | 52 | 2 | 0 | –
CC(C)C1=C2[C@H]3CC[C@@H]4[C@@]5(C)CC[C@H](OC(=O)[C@H]6C[C@@H](C(=O)O)C6(C)C)C(C)(C)[C@@H]5CC[C@@]4(C)[C@]3(C)CC[C@@]2(NC(=O)C(C)(C)NCCN(C)C)CC1=O [Example 73, (1R,3S)-3-((((3aR,5aR,5bR,7aR,9S,11aR,11bR,13aS)-3a-(2-((2-(dimethylamino)ethyl)amino)-2-methylpropanamido)-1-isopropyl-5a,5b,8,8,11a-pentamethyl-2-oxo-3,3a,4,5,5a,5b,6,7,7a,8,9,10,11,11a,11b,12,13,13a-octadecahydro-2H-cyclopenta[a]chrysen-9-yl)oxy)carbonyl)-2,2-dimethylcyclobutane-1-carboxylic acid] | 52 | 11 | 9 | –
CC(C)C1=C2[C@H]3CC[C@@H]4[C@@]5(C)CC[C@H](OC(=O)[C@H]6C[C@@H](C(=O)O)C6(C)C)C(C)(C)[C@@H]5CC[C@@]4(C)[C@]3(C)CC[C@@]2(NC(=O)C(C)(C)NC(=O)c2ccc(Cl)cc2)CC1=O [Example 1, (1R,3S)-3-((((3aR,5aR,5bR,7aR,9S,11aR,11bR,13aS)-3a-(2-(4-chlorobenzamido)-2-methylpropanamido)-1-isopropyl-5a,5b,8,8,11a-pentamethyl-2-oxo-3,3a,4,5,5a,5b,6,7,7a,8,9,10,11,11a,11b,12,13,13a-octadecahydro-2H-cyclopenta[a]chrysen-9-yl)oxy)carbonyl)-2,2-dimethylcyclobutane-1-carboxylic acid] | 57 | 10 | 4 | –
CC(C)C1=C2[C@H]3CC[C@@H]4[C@@]5(C)CC[C@H](OC(=O)[C@H]6C[C@@H](C(=O)O)C6(C)C)C(C)(C)[C@@H]5CC[C@@]4(C)[C@]3(C)CC[C@@]2(NC(=O)C(C)(C)NC(=O)CN2CCS(=O)(=O)CC2)CC1=O [Example 34, (1R,3S)-3-((((3aR,5aR,5bR,7aR,9S,11aR,11bR,13aS)-3a-(2-(2-(1,1-dioxidothiomorpholino)acetamido)-2-methylpropanamido)-1-isopropyl-5a,5b,8,8,11a-pentamethyl-2-oxo-3,3a,4,5,5a,5b,6,7,7a,8,9,10,11,11a,11b,12,13,13a-octadecahydro-2H-cyclopenta[a]chrysen-9-yl)oxy)carbonyl)-2,2-dimethylcyclobutane-1-carboxylic acid] | 26 | 10 | 1 | –
